Measured values reported in patent US12545640B2, “Substituted 6,7-dihydro-5H-benzo[7]annulene compounds, processes for their preparation and therapeutic uses thereof” (SANOFI, priority 2019, dated 2026).

The compounds below were run against T1, ERα (Homo sapiens, UniProt P03372) (assay: Estrogen receptor degradation activity: breast cancer cell ERα in cell western assay (MCF7 cells)). Conditions: 4 hours, final concentrations ranging from 0.3-0.0000018 μM, relative to fulvestrant 0.1 μM positive control.
T1 construct: host or cells: MCF7 cells
T1 sequence (P03372 1-595): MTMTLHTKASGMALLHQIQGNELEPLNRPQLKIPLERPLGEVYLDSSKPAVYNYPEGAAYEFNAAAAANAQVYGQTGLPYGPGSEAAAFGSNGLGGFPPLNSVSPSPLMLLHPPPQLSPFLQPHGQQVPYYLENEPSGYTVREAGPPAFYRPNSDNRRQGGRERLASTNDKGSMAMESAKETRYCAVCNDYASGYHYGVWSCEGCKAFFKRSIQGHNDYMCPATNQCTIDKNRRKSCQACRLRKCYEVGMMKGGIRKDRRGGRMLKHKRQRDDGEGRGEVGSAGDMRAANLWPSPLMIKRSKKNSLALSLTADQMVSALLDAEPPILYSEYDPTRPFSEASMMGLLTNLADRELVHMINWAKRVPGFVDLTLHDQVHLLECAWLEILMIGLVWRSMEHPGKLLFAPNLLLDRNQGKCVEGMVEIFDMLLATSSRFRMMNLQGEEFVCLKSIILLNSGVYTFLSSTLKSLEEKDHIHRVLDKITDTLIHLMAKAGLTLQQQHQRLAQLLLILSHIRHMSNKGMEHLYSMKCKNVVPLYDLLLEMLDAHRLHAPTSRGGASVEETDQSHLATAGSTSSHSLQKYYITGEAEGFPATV
Format: cell-based
Description: Test: Estrogen Receptor Degradation Activity
Said test involves measuring the in vitro degradation activity of the compounds of the invention.
The measurements of the degradation activities were made using a breast cancer cell ERα in cell western assay as described hereunder.
MCF7 cells (ATCC) were seeded in 384 wells microplate (collagen coated) at a concentration of 10000 cells/30 μL, per well in red phenol free MEM alpha medium (invitrogen) containing 5% charcoal dextran striped FBS. The following day, 9 points serial 1:5 dilution of each compound was added to the cells in 2.5 μL at final concentrations ranging either from 3-0.000018 μM (column «% Degradation at 3 μM in table 2) or from 0.3-0.0000018 μM (column «% Degradation at 0.3 μM in table 2), or 0.1 μM for fulvestrant (using as positive control). At 4 hours post compound addition the cells were fixed by adding 25 μL of formalin (final concentration 5% formalin containing 0.1% triton) for 10 minutes at room temperature and then washed twice with PBS. Then, 50 μL of LI-COR blocking buffer containing 0.1% Triton was added to plate for 30 minutes at room temperature. LI-COR blocking buffer was removed and cells were incubated overnight at cold room with 50 μL anti-ER rabbit monoclonal antibody (Thermo scientific MA1-39540) diluted at 1:1000 in LI-COR blocking buffer containing 0.1% tween-20. Wells which were treated with blocking buffer but no antibody were used as background control. Wells were washed twice with PBS (0.1% tween-20) and incubated at 37° C. for 60 minutes in LI-COR (0.1% tween-20) containing goat anti-rabbit antibody Alexa 488 (1:1000) and Syto-64 a DNA dye ([…]). Cells were then washed 3 times in PBS and scanned in ACUMEN explorer (TTP-Labtech). Integrated intensities in the green fluorescence and red fluorescence were measured to determine the levels of ERα and DNA respectively.
With `CC(C)(O)c1cccc(-c2ccc3c(c2)CCCC(c2ccc(Cl)cc2Cl)=C3c2ccc(O[C@H]3CCN(CCCF)C3)cc2)c1` [Example 94, (S)-2-(3-(8-(2,4-dichlorophenyl)-9-(4-((1-(3-fluoropropyl)pyrrolidin-3-yl)oxy)phenyl)-6,7-dihydro-5H-benzo[7]annulen-3-yl)phenyl)propan-2-ol] the “% Degradation At 0.3 μM” value was 64%. In the case of `O=C(Nc1ccc2c(c1)CCCC(c1ccc(Cl)cc1Cl)=C2c1ccc(O[C@H]2CCN(CCCF)C2)cc1)C1(F)CC1` [Example 66, (S)—N-(8-(2,4-dichlorophenyl)-9-(4-((1-(3-fluoropropyl)pyrrolidin-3-yl)oxy)phenyl)-6,7-dihydro-5H-benzo[7]annulen-3-yl)-1-fluorocyclopropane-1-carboxamide], the “% Degradation At 0.3 μM” value is reported as 74%. For `CC(C)(C)OC(=O)Nc1ccc2c(c1)CCCC(c1ccccc1)=C2c1ccc(O[C@H]2CCN(CCCF)C2)cc1` [Example 71, tert-butyl (S)-(9-(4-((1-(3-fluoropropyl)pyrrolidin-3-yl)oxy)phenyl)-8-phenyl-6,7-dihydro-5H-benzo[7]annulen-3-yl)carbamate], the “% Degradation At 0.3 μM” value was 91%. For `CS(=O)(=O)Nc1ccc2c(c1)CCCC(c1cccc(F)c1Cl)=C2c1ccc(O[C@H]2CCN(CCCF)C2)cc1` [Example 90, (S)—N-(8-(2-chloro-3-fluorophenyl)-9-(4-((1-(3-fluoropropyl)pyrrolidin-3-yl)oxy)phenyl)-6,7-dihydro-5H-benzo[7]annulen-3-yl)methanesulfonamide], the “% Degradation At 0.3 μM” value was 77%. With `O=C(NC1COC1)c1ccc2c(c1)CCCC(c1ccc(Cl)cc1Cl)=C2c1ccc(O[C@H]2CCN(CCCF)C2)cc1` [Example 75, (S)-8-(2,4-dichlorophenyl)-9-(4-((1-(3-fluoropropyl)pyrrolidin-3-yl)oxy)phenyl)-N-(oxetan-3-yl)-6,7-dihydro-5H-benzo[7]annulene-3-carboxamide] the “% Degradation At 0.3 μM” value was 71%. With `O=C(O)c1ccc(-c2ccc3c(c2)CCCC(c2ccc(Cl)cc2Cl)=C3c2ccc(O[C@H]3CCN(CCCF)C3)cc2)cc1` [Example 72, (S)-4-(8-(2,4-dichlorophenyl)-9-(4-((1-(3-fluoropropyl)pyrrolidin-3-yl)oxy)phenyl)-6,7-dihydro-5H-benzo[7]annulen-3-yl)benzoic acid] the “% Degradation At 0.3 μM” value was 74%. `O=C1C[C@H](O)CN1c1ccc2c(c1)CCCC(c1ccc(Cl)cc1Cl)=C2c1ccc(O[C@H]2CCN(CCCF)C2)cc1` [Example 85, (S)-1-(8-(2,4-dichlorophenyl)-9-(4-(((S)-1-(3-fluoropropyl)pyrrolidin-3-yl)oxy)phenyl)-6,7-dihydro-5H-benzo[7]annulen-3-yl)-4-hydroxypyrrolidin-2-one] was tested, and the “% Degradation At 0.3 μM” value was 69%. `O=C(O)c1ccccc1-c1ccc2c(c1)CCCC(c1ccc(Cl)cc1Cl)=C2c1ccc(O[C@H]2CCN(CCCF)C2)cc1` [Example 86, (S)-2-(8-(2,4-dichlorophenyl)-9-(4-((1-(3-fluoropropyl)pyrrolidin-3-yl)oxy)phenyl)-6,7-dihydro-5H-benzo[7]annulen-3-yl)benzoic acid] was tested, and the “% Degradation At 0.3 μM” value was 88%. For `OB(O)c1ccc2c(c1)CCCC(c1ccccc1)=C2c1ccc(O[C@H]2CCN(CCCF)C2)cc1` [Example 92, (S)-(9-(4-((1-(3-fluoropropyl)pyrrolidin-3-yl)oxy)phenyl)-8-phenyl-6,7-dihydro-5H-benzo[7]annulen-3-yl)boronic acid], the “% Degradation At 0.3 μM” value was 85%.

Same assay, conditions: 4 hours, final concentrations ranging from 3-0.000018 μM, relative to fulvestrant 0.1 μM positive control
For `N#Cc1ccc2c(c1)CCCC(c1ccc(Cl)cc1Cl)=C2c1ccc(O[C@H]2CCN(CCCF)C2)cc1` [Example 22, (S)-8-(2,4-dichlorophenyl)-9-(4-((1-(3-fluoropropyl)pyrrolidin-3-yl)oxy)phenyl)-6,7-dihydro-5H-benzo[7]annulene-3-carbonitrile], the “% Degradation At 3 μM” value was 82%. In the case of `FCCCN1CC[C@H](Oc2ccc(C3=C(c4ccc(Cl)cc4Cl)CCCc4cc(-c5cn[nH]c5)ccc43)cc2)C1` [Example 21, (S)-4-(8-(2,4-dichlorophenyl)-9-(4-((1-(3-fluoropropyl)pyrrolidin-3-yl)oxy)phenyl)-6,7-dihydro-5H-benzo[7]annulen-3-yl)-1H-pyrazole], the “% Degradation At 3 μM” value is reported as 78%. For `O=C(O)c1cccc(-c2ccc3c(c2)CCCC(c2ccc(Cl)cc2Cl)=C3c2ccc(O[C@H]3CCN(CCCF)C3)cc2)c1` [Example 55, (S)-3-(8-(2,4-dichlorophenyl)-9-(4-((1-(3-fluoropropyl)pyrrolidin-3-yl)oxy)phenyl)-6,7-dihydro-5H-benzo[7]annulen-3-yl)benzoic acid], the “% Degradation At 3 μM” value was 84%. For `CS(=O)(=O)Nc1ccc2c(c1)CCCC(c1ccc(Cl)cc1Cl)=C2c1ccc(O[C@H]2CCN(CCCF)C2)cc1` [Example 30, (S)—N-(8-(2,4-dichlorophenyl)-9-(4-((1-(3-fluoropropyl)pyrrolidin-3-yl)oxy)phenyl)-6,7-dihydro-5H-benzo[7]annulen-3-yl)methane sulfonamide], the “% Degradation At 3 μM” value was 70%. For `O=C(NNC(=S)n1ccnc1)c1ccc2c(c1)CCCC(c1ccc(Cl)cc1Cl)=C2c1ccc(O[C@H]2CCN(CCCF)C2)cc1` [Example 59, (S)-8-(2,4-dichlorophenyl)-9-(4-((1-(3-fluoropropyl)pyrrolidin-3-yl)oxy)phenyl)-N′-(1H-imidazole-1-carbonothioyl)-6,7-dihydro-5H-benzo[7]annulene-3-carbohydrazide], the “% Degradation At 3 μM” value was 91%. `Oc1cc(-c2ccc3c(c2)CCCC(c2ccc(Cl)cc2Cl)=C3c2ccc(O[C@H]3CCN(CCCF)C3)cc2)on1` [Example 4, (S)-5-(8-(2,4-dichlorophenyl)-9-(4-((1-(3-fluoropropyl)pyrrolidin-3-yl)oxy)phenyl)-6,7-dihydro-5H-benzo[7]annulen-3-yl)isoxazol-3-ol] was tested, and the “% Degradation At 3 μM” value was 87%. In the case of `O=C(O)Cc1ccc2c(c1)CCCC(c1ccc(Cl)cc1Cl)=C2c1ccc(O[C@H]2CCN(CCCF)C2)cc1` [Example 93, (S)-2-(8-(2,4-dichlorophenyl)-9-(4-((1-(3-fluoropropyl)pyrrolidin-3-yl)oxy)phenyl)-6,7-dihydro-5H-benzo[7]annulen-3-yl)acetic acid], the “% Degradation At 3 μM” value is reported as 84%. In the case of `O=c1[nH]c(-c2ccc3c(c2)CCCC(c2ccc(Cl)cc2Cl)=C3c2ccc(O[C@H]3CCN(CCCF)C3)cc2)no1` [Example 27, (S)-3-(8-(2,4-dichlorophenyl)-9-(4-((1-(3-fluoropropyl)pyrrolidin-3-yl)oxy)phenyl)-6,7-dihydro-5H-benzo[7]annulen-3-yl)-1,2,4-oxadiazol-5(4H)-one], the “% Degradation At 3 μM” value is reported as 71%. For `NC(=O)c1ccc2c(c1)CCCC(c1ccc(Cl)cc1Cl)=C2c1ccc(O[C@H]2CCN(CCCF)C2)cc1` [Example 3, (S)-8-(2,4-dichlorophenyl)-9-(4-((1-(3-fluoropropyl)pyrrolidin-3-yl)oxy)phenyl)-6,7-dihydro-5H-benzo[7]annulene-3-carboxamide], the “% Degradation At 3 μM” value was 95%. In the case of `CC(C)(C)OC(=O)Nc1ccc2c(c1)CCCC(c1ccc(Cl)cc1Cl)=C2c1ccc(O[C@H]2CCN(CCCF)C2)cc1` [Example 32, Tert-butyl (S)-(8-(2,4-dichlorophenyl)-9-(4-((1-(3-fluoropropyl)pyrrolidin-3-yl)oxy)phenyl)-6,7-dihydro-5H-benzo[7]annulen-3-yl)carbamate], the “% Degradation At 3 μM” value is reported as 73%.
